{"source": "patent US7981997B2", "about": "“Growth factor which acts through ErbB-4 RTK” (Yeda Research And Development Co., priority 2000, dated 2011)", "key": {"[1]": {"tested_on": "D1 cells (32D expressing ErbB-1)", "experiment": "32D cell proliferation, 24-hour dose-response MTT assay", "assay_type": "cell-based", "conditions": "24-hour dose-response, without IL-3", "procedure": "The indicated derivative lines of 32D cells were tested for cell proliferation using the [3-(4,5-dimethylthiazol-2-yl)-2,5-diphenyl]tetrazolium bromide (MTT) assay. […] The MT assay was performed 24 hours later. Results are presented as percent induction over the control untreated cells, and are the mean±S.D. of 4 determinations. Each experiment was repeated at least twice with similar findings.\n(§1) The establishment of a series of interleukin 3 (IL-3)-dependent 32D myeloid cells expressing all combinations of ErbB proteins has been described (Alimandi et al., 1997; Pinkas-Kramarski et al., 1996; Shelly et al., 1998). Cells were maintained in RPMI medium with 10% fetal bovine serum (FBS) and dilute IL3-containing conditioned medium. Prior to proliferation assays, cells were washed three times in RPMI/FBS and plated (5×10^5 cells/ml; 0.1 ml/well) into 96-well flat-bottomed plates with the indicated liconcentrations or with IL-3 (1:1000 dilution of conditioned medium). Cell survival was determined 24 hours later, or after the indicated time intervals, by MTT assay, as previously described (Mosman, 1983). MTT (0.05 mg/ml) was incubated with the analyzed cells for 2 hours at 37 C. Living cells can transform the tetrazolium ring into dark blue formazan crystals, that can be quantified by reading the optical density at 540-630 nm after lysis of the cells with acidic isopropanol. […]"}, "[2]": {"tested_on": "D12 cells (32D co-expressing ErbB-1 and ErbB-2)", "experiment": "Long-term cell survival assay in the absence of IL-3 (MTT)", "assay_type": "cell-based", "conditions": "ligand 100 ng/ml, FIG. 3B", "procedure": "FIG. 3b show survival effect of NRG-4 on ErbB-expressing derivatives of 32D cells. The indicated derivatives of 32D cells were incubated for various time intervals in the absence of IL-3. […] For control, cells were incubated with medium conditioned by IL-3-producing cells (open triangles), or with no factor (open circles). The extent of cell proliferation was determined daily by using the calorimetric MTT assay. The data presented are the mean±S.D. of 4 determinations. Note that co-expression of ErbB-1 and ErbB-2 (D12 cells) enabled cell survival in the absence of IL-3. The experiment was repeated twice with similar results.\nas §1, with “Prior to proliferation assays, cells were washed three times in RPMI/FBS and plated (5×10^5 cells/ml; 0.1 ml/well) into 96-well flat-bottomed plates with the indicated liconcentrations or with IL-3 (1:1000 dilution of conditioned medium).” left out"}}, "data": [{"substance": "EGF: EGF (human, recombinant) purchased from Boehringer Mannheim (NSDSECPLSHDGYCLHDGVCMYIEALDKYACNCVVGYIGERCQYRDLKWWELR) [reference compound]", "values": [{"measurement": "mitogenic response of D1 cells", "setting": "[1]", "value": "retained"}, {"measurement": "response of D12 cells (high basal proliferation activity)", "setting": "[2]", "value": "still responded"}]}]}
